Source: patent US10251871B2, “Compositions and methods for treatment of edema” (Memorial Sloan Kettering Cancer Center, priority 2015, dated 2019)

Tests used:
[1] = tested on: popliteal lymph node dissection (PLND) mouse model; assay: Popliteal lymph node dissection (PLND) hind limb model of lymphatic injury
[2] = tested on: mouse tail model of lymphedema; assay: Mouse tail model of lymphedema (tail volume, histology, immunostaining, lymphoscintigraphy, NIR imaging, PCR, ELISA); type: in vivo, C57BL/6J mice
[3] = tested on: hind limb lymphatic ablation with DT; assay: Hind limb lymphatic ablation with DT; type: in vivo, mouse
[4] = systemic pirfenidone once daily for 2 weeks from 2 weeks after PLND, 4 weeks after PLND, vs vehicle
[5] = systemic pirfenidone, 4 weeks after PLND, vs control
[6] = systemic pirfenidone, oral 400 mg/kg daily for 3 weeks from 7 weeks after surgery, vs control
[7] = systemic pirfenidone, vs control
[8] = topical pirfenidone 1 mg/ml daily for 3 weeks from 7 weeks after surgery, vs control
[9] = topical pirfenidone, vs control
[10] = topical captopril 5% once daily for 2 weeks after PLND, vs control
[11] = topical captopril 5% once daily, 6 weeks after tail lymphatic ablation, vs control
[12] = captopril after DT lymphatic ablation, ipsilateral limb vs ipsilateral control

`Cc1ccc(=O)n(-c2ccccc2)c1` [pirfenidone] was tested, and the “lymphatic vessels density (LYVE-1) in the hind limb” value ([1]; systemic pirfenidone once daily for 2 weeks from 2 weeks after PLND, 4 weeks after PLND, vs control) was “marked increase”, the “dermal backflow and capillary vessel leakage (NIR lymphangiography)” value [1, 4] was “markedly less” and the “increase in rate of collecting lymphatic vessel contraction” value [1, 4] was 2 fold. For the same molecule, the “perilymphatic expression of iNOS by inflammatory cells” value [1, 5] was “significant decrease”, the “perilymphatic infiltration of inflammatory cells (CD45+)” value [1, 5] was “significant decrease” and the “TGF-β1 protein accumulation (ELISA)” value ([2]; pirfenidone (FIG. 20I: systemic), vs control) was “decreased accumulation”. For the same molecule, the “accumulation of IFN-γ protein (ELISA)” value ([2]; pirfenidone (FIG. 20J: systemic), vs control) was “significant decrease”, the “VEGF-C protein accumulation (ELISA)” value ([2]; pirfenidone (FIG. 20K: systemic), vs control) was “no difference” and the “numbers of infiltrating CD4+ cells” value ([2]; pirfenidone treatment (systemic and topical, FIG. 20A, 20D), vs control) was “marked decreases”. For the same molecule, the “numbers of infiltrating CD3+ cells” value ([2]; pirfenidone treatment from 7 weeks after surgery, vs control) was “marked decreases”, the “lymphatic vessels density (LYVE-1) in the tail” value ([2]; pirfenidone, vs control) was “marked increase” and the “type I collagen around collecting lymphatics (α-SMA+/podoplanin+)” value ([2]; pirfenidone-treated animals vs control) was “essentially normal lymphatic vessels”. The soft tissue thickness [2, 6] was “markedly decreased”, the tail volume [2, 6] was “markedly decreased” and the “F4/80+ cellular infiltration in lymphedematous tail tissues” value [2, 7] was “no difference”. The “accumulation of TGF-β1+ cells” value [2, 7] was “markedly decreased”, the “accumulation of pSMAD3+ cells” value [2, 7] was “markedly decreased” and the “dermal and subcutaneous type I collagen deposition” value [2, 7] was “significantly decreased”. The “increase in decay-adjusted 99Tc uptake of the sacral lymph nodes” value [2, 7] was ~4 fold, the “increase in peak nodal uptake of 99Tc” value [2, 7] was ~4 fold and the “numbers of leukocytes infiltrating the dermis and subcutaneous fat” value [2, 7] was “markedly decreased”. The “rate of 99Tc uptake (slope of decay-adjusted curve)” value [2, 7] was “increased”, the soft tissue thickness [2, 8] was “markedly decreased” and the tail volume [2, 8] was “markedly decreased”. For the same molecule, the “F4/80+ cellular infiltration in lymphedematous tail tissues” value [2, 9] was “no difference”, the “accumulation of TGF-β1+ cells” value [2, 9] was “markedly decreased” and the “accumulation of pSMAD3+ cells” value [2, 9] was “markedly decreased”. For the same molecule, the “dermal and subcutaneous type I collagen deposition” value [2, 9] was “significantly decreased”, the “increase in decay-adjusted 99Tc uptake of the sacral lymph nodes” value [2, 9] was ~4 fold and the “increase in peak nodal uptake of 99Tc” value [2, 9] was ~4 fold. For the same molecule, the “numbers of leukocytes infiltrating the dermis and subcutaneous fat” value [2, 9] was “markedly decreased” and the “rate of 99Tc uptake (slope of decay-adjusted curve)” value [2, 9] was “increased”.

With `C/C(O)=C(\C#N)C(=O)Nc1ccc(C(F)(F)F)cc1` [teriflunomide] the “increase in number of DCs trafficked to the inguinal lymph node (FITC painting)” value ([1]; topical teriflunomide 27 mg/ml after PLND, vs control) was “more than 5 fold”, the “increase in formation of collateral lymphatic vessels bypassing the zone of injury (ICG near infra-red imaging)” value ([1]; topical teriflunomide 27 mg/ml once daily for 2 weeks from 2 weeks after PLND, vs vehicle) was 4.5 fold and the “decrease in tail volume” value ([2]; topical teriflunomide 27 mg/ml once daily for 4 weeks from 2 weeks after surgery, 6 weeks after lymphatic ablation, vs vehicle) was ~6 fold. For the same molecule, the “decrease in number of infiltrating CD4+ cells in tail tissues” value ([2]; topical teriflunomide 27 mg/ml, vs control) was “more than 8 fold”.

In the case of `C[C@H](CS)C(=O)N1CCC[C@H]1C(=O)O` [captopril], the “T cell (CD3+) infiltration in hind limb tissues” value [1, 10] is reported as “decreases”, the “hind limb collecting lymphatic pumping (packet frequency)” value [1, 10] is reported as “increases” and the “lymphangiogenesis (LYVE-1+ vessels)” value [1, 10] is reported as “increases”. For the same molecule, the “macrophage (F4/80+) infiltration in hind limb tissues” value [1, 10] was “decreases”, the “trafficking of dendritic cells (FITC+CD11c cells in inguinal lymph nodes)” value [1, 10] was “increases” and the lymphatic function ([1]; topical captopril 5% once daily for 2 weeks after PLND, vs vehicle) was “improved lymphatic function”. For the same molecule, the ACE staining area [2, 11] was “significant decrease”, the “LYVE-1+ lymphatic vessel area” value [2, 11] was “significant decrease” and the “dermal type I collagen staining area” value [2, 11] was “significant decrease”. The “number of lymphatic vessels (LYVE-1+) crossing the region of the tail wound” value [2, 11] was “increases”, the “perilymphatic CD3+ cells/vessel” value [2, 11] was “significant decrease” and the “perilymphatic F4/80 cells/vessel” value [2, 11] was “significant decrease”. For the same molecule, the “subcutaneous fibroadipose tissue deposition” value [2, 11] was “significant decrease”, the “tail collecting vessel pumping (contraction) frequency” value ([2]; topical captopril ointment, 6 weeks after tail lymphatic ablation, vs control) was “increases” and the “LYVE-1+ lymphatic vessel area” value [3, 12] was “significant decrease”. The “T cell (CD3+) infiltration in hind limb tissues” value [3, 12] was “decreases”, the “hind limb angiotensin converting enzyme (ACE) expression” value [3, 12] was “decreases” and the “hind limb collecting vessel smooth muscle (α-SMA) deposition” value [3, 12] was “decreases”. For the same molecule, the “hind limb lymphangiogenesis (LYVE-1+ lymphatic vessels)” value [3, 12] was “decreases”, the “hind limb macrophage (F4/80+) infiltration” value [3, 12] was “decreases” and the “hind limb type I collagen deposition” value [3, 12] was “decreases”. The “formation of collateral lymphatics (ICG)” value ([3]; captopril after DT lymphatic ablation, vs control) was “increases” and the foot swelling ([3]; captopril treatment after hind limb lymphatic ablation with DT, vs control) was “obvious decrease”.
